Structures can show the parent of a compound that is named as a salt. Where two headings read alike, the source gives them in different places.

Broadly, the EC50 is the concentration that produces a half-maximal response.

In assay [1] the test system is normal primary cultures of rat brain astrocytes. In words: Dose response (percent survival) in primary cultures of astrocytes. The class given is cell-based. The settings on record: 4 days of treatment. An excerpt: (§1) 6,7-Dimethoxy-1-[4-(4-methoxypyridin-3-yl)benzyl]-1,2,3,4-tetrahydroisoquinolinehydrochloride (EDL-291) was synthesized as described herein in the laboratory of Dr. Duane D. Miller at The University of Tennessee Health Science Center. Briefly, the primary cultures of astrocytes and cultures of C6 glioma cell lines were handled identically with respect to treatment concentrations and manipulations of cells for the screening assays. The cells were trypsinized and transferred to 96-well plates at a cell density of 10^3 cells/mm^2 in the wells. The cells were grown overnight in 100 μL of 10% FCS BME in a 37° C. incubator containing a humid, 5% CO2 atmosphere.
(§2) EDL291 was dissolved completely to make a […] stock solution and diluted to produce a series of concentrations. A 20 μL aliquot of these initial solutions was added to 180 μl of 2% FCS BME to produce the test concentration. The vehicle solution was tested as a control. […] Immediately before treatment, the 10% FCS BME was removed from the cells and replaced with the 180 μl of the treatment medium. The cultured cells (normal primary cultures of rat brain astrocytes or C6 glioma purchased from ATCC) were incubated with test compound for 4 days. The cells were fixed with 4% paraformaldehyde, stained with 0.1% Cresylecth violet stain, and quantitated. The screening data was collected as four wells for each dose per compound (screening) or concentration (dose response curve). Also, the average growth of 8 wells with no treatment was used as a negative control for each plate (100% growth). The cells for dose response curves were grown in the same media and were handled in a similar manner as in the screening assays.
(§3) The cytotoxic character of each compound was reported as the percent survival, calculated as the average A560 for treated cells divided by A560 of untreated (100% control) cells, and expressed as a percentage. Values less than 100% indicate a cytostatic or cytotoxic effect. Dose response curves and EC50 values were attained via plots of percent survival vs. concentration.

The test system of another assay is C6 glioma. In words: Dose response (percent survival) in C6 glioma cell cultures. The class given is cell-based, rat. The conditions noted are these: C6 glioma cells, 4 days of treatment, percent survival.
Source text: as §1, §2, §3

The mark [2] stands for this setting: Rattus norvegicus, Astrocyte, 96 h.
Setting [3] is: Rattus norvegicus, C6 glioma, 96 h.

Take `COc1cc2c(cc1OC)C(Cc1ccc(-c3ccncc3)cc1)N(C(=O)OC(C)(C)C)CC2` (stereo not drawn) [Compound 3, 6,7-Dimethoxy-1-(4-pyridin-4-yl-benzyl)-3,4-dihydro-1H-isoquinoline-2-carboxylic acid tert-butyl ester]: the figures for the EC50 (in assay [1] (setting [2]); in the assay with C6 glioma (setting [3])) were 18.4 µM and 5.92 µM, respectively.

As to `COc1cc2c(cc1OC)C(Cc1ccc(-c3ccncc3)cc1)NCC2` (stereo not drawn) [Compound 4, 6,7-Dimethoxy-1-(4-pyridin-4-ylbenzyl)-1,2,3,4-tetrahydroisoquinoline hydrochloride salt], the EC50 in assay [1] (setting [2]) was found to be 74.4 µM; in the assay on C6 glioma (setting [3]), 17.7 µM.

For `COc1cc2c(cc1OC)C(Cc1ccc(-c3cccnc3OC)cc1)N(C(=O)OC(C)(C)C)CC2` (stereo not drawn) [Compound 6, 6,7-Dimethoxy-1-[4-(2-methoxypyridin-3-yl)benzyl]-3,4-dihydro-1H-isoquinoline-2-carboxylic acid tert-butyl ester], the “EC50 μM Astrocyte” value in assay [1] is reported as “No Effect”. Moreover, a half-maximal effect with C6 glioma (setting [3]) (EC50) was put at 4.3 µM.

As to `COc1cc2c(cc1OC)C(Cc1ccc(-c3cccnc3OC)cc1)NCC2` (stereo not drawn) [Compound 7, 6,7-Dimethoxy-1-[4-(2-methoxypyridin-3-yl)benzyl]-1,2,3,4-tetrahydroisoquinoline hydrochloride salt], the half-maximal effective concentration (EC50) was 50 to 100 µM in assay [1] (setting [2]) and 1.75 µM with C6 glioma (setting [3]).

Turning to `COc1cc2c(cc1OC)C(Cc1ccc(-c3cccnc3OC)cc1)N(C)CC2` (stereo not drawn) [Compound 8, 6,7-dimethoxy-1-[4-(2-methoxypyridin-3-yl)benzyl]-2-methyl-1,2,3,4-tetrahydro-isoquinoline], the EC50 was found to be 27.3 µM in assay [1] (setting [2]) and 2.2 µM in the assay with C6 glioma (listed as drawing 26).

Take `COc1cc2c(cc1OC)C(Cc1ccc(-c3cccnc3OC)cc1)N(C)CC2` (stereo not drawn) [Compound 9, 6,7-Dimethoxy-1-[4-(2-methoxypyridin-3-yl)benzyl]-2-methyl-1,2,3,4-tetrahydroisoquinolinehydrochloride]: the 50% effective concentration (EC50) worked out at 25.3 µM in assay [1] (read-out: EC50 μM Astrocyte) and 5.5 µM in the assay on C6 glioma (listed as drawing 27).

Take `COc1cc2c(cc1OC)C(Cc1ccc(-c3ccncc3OC)cc1)N(C(=O)OC(C)(C)C)CC2` (stereo not drawn) [Compound 11, 6,7-Dimethoxy-1-[4-(3-methoxypyridin-4-yl)benzyl]-3,4-dihydro-1H-isoquinoline-2-carboxylic acid tert-butyl ester]: the figures for the 50% effective concentration (EC50) (in assay [1] (setting [2]); in the assay with C6 glioma (setting [3])) were 13.6 µM and 4.4 µM, respectively.

For `COc1cc2c(cc1OC)C(Cc1ccc(-c3ccncc3OC)cc1)NCC2` (stereo not drawn) [Compound 12, 6,7-Dimethoxy-1-[4-(3-methoxypyridin-4-yl)benzyl]-1,2,3,4-tetrahydroisoquinoline hydrochloride salt], the figures for the concentration giving a half-maximal response (EC50) (in assay [1] (setting [2]); with C6 glioma (setting [3])) were 49.5 µM and 6.9 µM, respectively.

With `COc1cc2c(cc1OC)C(Cc1ccc(-c3ccccc3NS(C)(=O)=O)cc1)N(C(=O)OC(C)(C)C)CC2` (stereo not drawn) [Compound 14, 1-(2′-Methanesulfonylaminobiphenyl-4-ylmethyl)-6,7-dimethoxy-3,4-dihydro-1H-isoquinoline-2-carboxylic acid tert-butyl ester], the “EC50 μM Astrocyte” value in assay [1] is on record as “No Effect”. This compound also gave an EC50 in the assay with C6 glioma (setting [3]) of 6.2 µM.

`COc1cc2c(cc1OC)C(Cc1ccc(-c3ccccc3NS(C)(=O)=O)cc1)NCC2` (stereo not drawn) [Compound 15, N-[4′-(6,7-Dimethoxy-1,2,3,4-tetrahydroisoquinolin-1-ylmethyl)-biphenyl-2-yl]-methanesulfonamide hydrochloride salt]: the EC50 in assay [1] (setting [2]) is 50 to 100 µM; in the assay with C6 glioma (setting [3]), 8.9 µM.

Take `COc1cc2c(cc1OC)C(Cc1ccc(-c3ccccc3NC(C)=O)cc1)N(C(=O)OC(C)(C)C)CC2` (stereo not drawn) [Compound 17, 1-(2′-Acetylaminobiphenyl-4-ylmethyl)-6,7-dimethoxy-3,4-dihydro-1H-isoquinoline-2-carboxylic acid tert-butyl ester]: in assay [1], the “EC50 μM Astrocyte” value was “No Effect”. The EC50 in the assay with C6 glioma (setting [3]) was 9.2 µM.

For the compound `COc1cc2c(cc1OC)C(Cc1ccc(-c3ccccc3NC(C)=O)cc1)NCC2.Cl` (stereo not drawn) [Compound 18, N-[4′-(6,7-Dimethoxy-1,2,3,4-tetrahydroisoquinolin-1-ylmethyl)biphenyl-2-yl]acetamide hydrochloride salt], the “EC50 μM Astrocyte” value in assay [1] is reported as “No Effect”. In addition, in the assay with C6 glioma (setting [3]), the EC50 is 22.4 µM.

As to `COc1cc2c(cc1OC)C(Cc1ccc(-c3cnccc3OC)cc1)N(C(=O)OC(C)(C)C)CC2` (stereo not drawn) [Compound 20, 6,7-Dimethoxy-1-[4-(4-methoxypyridin-3-yl)benzyl]-3,4-dihydro-1H-isoquinoline-2-carboxylic acid tert-butyl ester], the results for the concentration giving a half-maximal response (EC50) (in assay [1] (setting [2]); in the assay with C6 glioma (setting [3])) were 12.2 µM and 5.9 µM, respectively.

On to `COc1cc2c(cc1OC)C(Cc1ccc(-c3cnccc3OC)cc1)N(C)CC2` (stereo not drawn) [Compound 23, 6,7-Dimethoxy-1-[4-(4-methoxypyridin-3-yl)benzyl]-2-methyl-1,2,3,4-tetrahydroisoquinoline hydrochloride], for which the EC50 came out at 28.2 µM in assay [1] (setting [2]) and 3.3 µM with C6 glioma (setting [3]).

Turning to `COc1ncc(-c2ccc(CC3c4cc(OC)c(OC)cc4CCN3C(=O)OC(C)(C)C)cc2)c(OC)n1` (stereo not drawn) [Compound 25, 1-[4-(2,4-Dimethoxypyrimidin-5-yl)benzyl]-6,7-dimethoxy-3,4-dihydro-1H-isoquinoline-2-carboxylic acid tert-butyl ester], the “EC50 μM Astrocyte” value in assay [1] is listed as “No Effect”. The same compound displayed an EC50 with C6 glioma (setting [3]) of 6.8 µM.

Regarding `COc1ncc(-c2ccc(CC3NCCc4cc(OC)c(OC)cc43)cc2)c(OC)n1` (stereo not drawn) [Compound 26, 1-[4-(2,4-Dimethoxypyrimidin-5-yl)benzyl]-6,7-dimethoxy-1,2,3,4-tetrahydroisoquinoline hydrochloride], the concentration giving a half-maximal response (EC50) was 34 µM in assay [1] (setting [2]) and 9.3 µM in the assay on C6 glioma (setting [3]).

In the case of `COc1cc2c(cc1OC)C(Cc1ccc(-c3cncnc3)cc1)N(C(=O)OC(C)(C)C)CC2` (stereo not drawn) [Compound 28, 6,7-Dimethoxy-1-(4-pyrimidin-5-ylbenzyl)-3,4-dihydro-1H-isoquinoline-2-carboxylic acid tert-butyl ester], the “EC50 μM Astrocyte” value in assay [1] was “No Effect”. The compound further displayed a concentration for a half-maximal effect (EC50) with C6 glioma (setting [3]) of 15.2 µM.

With `COc1cc2c(cc1OC)C(Cc1ccc(-c3cncnc3)cc1)NCC2.Cl` (stereo not drawn) [Compound 29, 6,7-Dimethoxy-1-(4-pyrimidin-5-ylbenzyl)-1,2,3,4-tetrahydroisoquinoline hydrochloride], the “EC50 μM Astrocyte” value in assay [1] is “No Effect”. Besides, in the assay with C6 glioma (setting [3]), the EC50 came to 39.4 µM.

With `COc1cc2c(cc1OC)C(Cc1ccc(-c3cccnc3Cl)cc1)N(C(=O)OC(C)(C)C)CC2` (stereo not drawn) [Compound 31, 1-[4-(2-Chloro-pyridin-3-yl)benzyl]-6,7-dimethoxy-3,4-dihydro-1H-isoquinoline-2-carboxylic acid tert-butyl ester], the “EC50 μM Astrocyte” value in assay [1] is given as “No Effect”. Moreover, the concentration giving a half-maximal response (EC50) in the assay on C6 glioma (setting [3]) was determined as 3.5 µM.

With `COc1cc2c(cc1OC)C(Cc1ccc(-c3cccnc3Cl)cc1)NCC2` (stereo not drawn) [Compound 32, 1-[4-(2-Chloro-pyridin-3-yl)benzyl]-6,7-dimethoxy-1,2,3,4-tetrahydroisoquinoline hydrochloride], the concentration giving a half-maximal response (EC50) in assay [1] (setting [2]) is 28.2 µM; in the assay on C6 glioma (setting [3]) it was 2.7 µM.

For the compound `CC(C)(C)OC(=O)N1CCc2cc3c(cc2C1Cc1ccc(-c2cnccc2Cl)cc1)OCO3` (stereo not drawn) [Compound 40, 5-[4-(4-Chloropyridin-3-yl)benzyl]-7,8-dihydro-5H-[1,3]dioxolo[4,5-g]isoquinoline-6-carboxylic acid tert-butyl ester], the values for the EC50 (in assay [1] (setting [2]); with C6 glioma (setting [3])) were 37.5 µM and 6.3 µM, respectively.

Turning to `Clc1ccncc1-c1ccc(CC2NCCc3cc4c(cc32)OCO4)cc1` (stereo not drawn) [Compound 42, 5-[4-(4-Chloropyridin-3-yl)benzyl]-5,6,7,8-tetrahydro-[1,3]dioxolo[4,5-g]isoquinoline dihydrochloride salt], the EC50 in assay [1] (setting [2]) amounted to 81.5 µM; in the assay on C6 glioma (setting [3]), 2.5 µM.

Turning to `COc1ccncc1-c1ccc(CC2c3cc4c(cc3CCN2C(=O)OC(C)(C)C)OCO4)cc1` (stereo not drawn) [Compound 43, 5-[4-(4-methoxypyridin-3-yl)benzyl]-7,8-dihydro-5H-[1,3]dioxolo[4,5-g]isoquinoline-6-carboxylic acid tert-butyl ester], the half-maximal effective concentration (EC50) was found to be 12.4 µM in assay [1] (setting [2]) and 5.8 µM in the assay with C6 glioma (setting [3]).

For the compound `COc1ccncc1-c1ccc(CC2NCCc3cc4c(cc32)OCO4)cc1` (stereo not drawn) [Compound 45, 5-[4-(4-methoxypyridin-3-yl)benzyl]-5,6,7,8-tetrahydro-[1,3]dioxolo[4,5-g]isoquinoline dihydrochloride salt], the figures for the EC50 (in assay [1] (setting [2]); in the assay with C6 glioma (setting [3])) were 8.3 µM and 1.3 µM, respectively.

Values taken from US8507523B2, “Therapeutic tetrahydroisoquinoline-based compositions for cancer therapy” (priority 2006, dated 2013).
